Measured values taken from patent US20110263539A1, “SHIP 1 MODULATOR COMPOUNDS” (THE UNIVERSITY OF BRITISH COLUMBIA, priority 2006, published 2011).

Tests used:
[1] = Initial toxicology studies; format: in vivo; settings: data not shown
Text: A novel paradigm for inhibiting PI3K signaling through activation of the phosphatases that negatively regulate this pathway is provided. SHIP is a particularly good target for immune/hematopoietic disorders because of its restricted expression to hematopoietic cells. Because the relative activity of phosphatases present in a cell will influence the efficacy of kinase inhibitors, as discussed by Knight and Shokat, SHIP agonists may also be used to potentiate the activation of PI3K inhibitors and promote tissue targeting of PI3K inhibitors to the ematopoietic/immune cell compartment.

J774.1a macrophage cells [2] = experiment: Macrophage TNF-α production (Assay 2); format: cell-based; settings: 10 μg/mL test compound, 100 ng/mL LPS, ELISA; note: key: a ‘+’ indicates a positive result for desired activity; a ‘−’ indicates a negative result for desired activity
Experimental: Assay 2) Macrophage TNF-α production. J774.1a macrophage cells were treated with 10 μg/mL of test compound dissolved in solvent (e.g. cyclodextran) for 40 minutes prior to the addition of 100 ng/mL LPS. Culture supernatants were collected after 2 hr and 5 hr for TNF-α determination by ELISA.

MM cell lines = experiment: In vitro Multiple Myeloma (MM) assay (Assay 7); format: cell-based; note: key: a ‘+’ indicates a positive result for desired activity; a ‘−’ indicates a negative result for desired activity
Experimental: Assay 7) In vitro Multiple Myeloma (MM) assay. The ability of SHIP activators to reduce tumor cell survival was assessed in MM cell lines treated with the test compound. The lines OPM1, OPM2, MM.1S and RPMI 8226 were plated at a density of 1×10^5 cells/mL in 200 μL of medium with various concentrations of the test compound, and viable cell numbers were determined on day 3 and day 5 by trypan blue exclusion. The lines RPMI 8226 and U266 were plated at a density of 1×10^6 cells/mL in 250 μL of medium with various concentrations of the test compound. At day 4, the medium of each culture was replaced by fresh medium containing the same concentration of test compound. At day 7, the viable cell number of each culture was determined by trypan blue exclusion.
MM cell lines were cultured in 96 well plates seeded with 3×10^4 cells suspended in 200 μL of medium along with various concentrations of test compound (and associated cyclodextran vehicle control), with LY294002 serving as a positive control in the experiments. After 24-48 hrs of culture, […] of [3H]-thymidine (GE Healthcare, Baie D'Urfe, Canada) being added for the final 8 hours. Cells were harvested and DNA associated radioactivity was measured via liquid scintillation counting using a Wallac Microbeta counter (Perkin-Elmer; Boston, Mass.).
The ability of SHIP activators to reduce tumor cell survival was assessed in multiple myeloma (MM) cell lines treated with Compound 100 or AQX-016A. The lines OPM1, OPM2, MM.1S and RPMI 8226 were plated at a density of 1×10^5 cells/mL in 200 μL of medium with various concentrations of Compound 100, and viable cell numbers were determined on day 3 and day 5 by trypan blue exclusion. The lines RPMI 8226 and U266 were plated at a density of 1×10^6 cells/mL in 250 μL of medium with various concentrations of AQX-016A. At day 4, the medium of each culture was replaced by fresh medium containing the same concentration of AQX-016A. At day 7, the viable cell number of each culture was determined by trypan blue exclusion. Experiments were performed in triplicate.
Proliferation (DNA synthesis) assays. Proliferation was measured by measuring incorporation of [^3H]-thymidine into cells. MM cell lines were cultured in 96 well plates seeded with 3×10^4 cells suspended in 200 μL, of medium along with various concentrations of Compound 100 or AQX-016A (and associated cyclodextran vehicle control), with LY294002 serving as a positive control in the indicated experiments. After 24-48 hrs of culture, 1 μCi of [^3H]-thymidine (GE Healthcare, Baie D'Urfe, Canada) being added for the final 8 hours. Plates were frozen, which also aided in cell lysis, to terminate the experiments. Cells were then harvested onto glass fibre filters using an automatic cell harvester (TomTech; Orange, Conn.) and DNA associated radioactivity was measured via liquid scintillation counting using a Wallac Microbeta counter (Perkin-Elmer; Boston, Mass.). Wells were set up in triplicate and data is expressed as mean+/−SEM.

J774.1a macrophage cells [3] = experiment: Macrophage TNF-α NO assay (Assay 3); format: cell-based; settings: 10 μg/ml test compound, LPS, 24 hr, Griess reagent; note: key: a ‘+’ indicates a positive result for desired activity; a ‘−’ indicates a negative result for desired activity
Experimental: Assay 3) Macrophage TNF-α NO assay. J774.1a macrophage cells were treated with 10 μg/ml of test compound dissolved in solvent for 40 minutes prior to the addition of LPS. Culture supernatants were collected after 24 hr. for determination of NO concentration using the Griess reagent.

[4] = system: neutrophil myeloperoxidase (MPO) activity; experiment: Mouse acute cutaneous anaphylaxis model (Assay 5); format: in vivo, CD1 mice; settings: topical on ear, DNFB
Experimental: Assay 5) Mouse acute cutaneous anaphylaxis model. 6-8 week old CD1 mice
(§1) (University of British Columbia Animal Facility, Vancouver, BC) were sensitized to the hapten DNP by cutaneous application of 25 μL of 0.5% dinitrofluorobenzene (DNFB) (Sigma, Oakville, Ont) in acetone to the shaved abdomen of mice for two consecutive days. 24 hrs later, test substances (dissolved in 10 μL of 1:2 DMSO:MeOH) were painted on the right ear while the left ear received vehicle control. 30 min after drug application, DNFB was applied to both ears to induce mast cell degranulation. A 6 mm punch was taken from the ear and immediately frozen on dry ice for subsequent determination of neutrophil myeloperoxidase (MPO) activity.
as §1, with “Mouse acute cutaneous anaphylaxis model. 6-8 week old CD1 mice (University” for “(University”, “activity. Compound 100's ability to inhibit cutaneous anaphylaxis was assessed.” for “activity.”
Anaphylactic or allergic responses are mediated by allergen-induced degranulation of pre-sensitized mast cells. The mouse ear edema/cutaneous anaphylaxis model involves pre-sensitization of mice with the haptenizing agent dinitrofluorobenzene (DNFB). One week later the allergic reaction is elicited by painting DNFB onto the ears of the mice. The efficacy of potential anti-inflammatory compounds is tested by topical application of the test substance to one ear and comparing the resulting ear edema or inflammation of the two ears.

[5] = system: luciferase expressing OPM2 cells; experiment: In vivo Multiple Myeloma (MM) assay (Assay 8); set-up: species or system Mice; settings: 50 mg/kg every 3 days, subcutaneous oil depot
Experimental: Assay 8) In vivo Multiple Myeloma (MM) assay. Mice were inoculated with at two sites each with 3×10^6 luciferase expressing OPM2 cells suspended in 50 μL of growth medium and 50 μL of Matrigel basement membrane matrix (Becton Dickenson; Bedford, Mass.). Tumors were injected subcutaneously in the upper and lower flanks of the mice and allowed to establish for 2 weeks. After 2 weeks, a test compound or control vehicle was administered in a subcutaneous oil depot at a dose of 50 mg/kg every 3 days.
Tumors were measured using bioluminescence imaging on the Xenogen IVIS 200. Mice received intra-peritoneal injections of 200 μL of D-luciferin at 3.75 mg/mL in sterile PBS. Mice were then anesthetized with isofluorane and imaged 15 minutes post-injection of luciferin. Quantification of tumor size was performed using the Living Image™ software.
MM Xenograft murine model. Mice were inoculated with at two sites each with 3×10^6 luciferase expressing OPM2 cells suspended in 50 μL of growth medium and 50 μL of Matrigel basement membrane matrix (Becton Dickenson; Bedford, Mass.). Tumors were injected subcutaneously in the upper and lower flanks of the mice and allowed to establish for 2 weeks. […]
Tumors were measured using bioluminescence imaging on the Xenogen IVIS 200. […] Quantification of tumor size was performed using the Living Image™ software. […]

LNCaP cells = experiment: PKB activation in LNCaP cells; format: cell-based, human; settings: doses up to 60 μM
Experimental: The ability of AQX-016A to inhibit activation of PIP3-dependent downstream signalling proteins in SHIP^+/+ vs SHIP^−/− cells was assessed. LPS stimulation of macrophages results in PKB phosphorylation. […] Similar protein loading was confirmed by reblotting with either antibodies to PKB or Grb2. […] Thus, AQX-016A inhibits PIP3-regulated intracellular signal transduction events in SHIP expressing hematopoietic cells, but not in SHIP-deficient hematopoietic or non-hematopoietic cells.

[6] = system: SHIP−/− bone marrow derived macrophages; experiment: LPS stimulation of SHIP−/− bone marrow derived macrophages; format: cell-based, mice; settings: SHIP−/− cells, 15 μM, 10 ng/mL LPS 2 h
Experimental: (§2) Bone marrow cells were aspirated from 4 to 8 week old C57B16×129Sv mixed background mice and SHIP and SHIP cells prepared as described previously. Bone marrow derived macrophages from SHIP^+/+ and SHIP^−/− mice were obtained and maintained in IMDM supplemented with 10% FCS, 150 μM MTG, 2% C127 cell conditioned medium as a source of macrophage colony stimulating factor (M-CSF) (macrophage medium)
LPS stimulation of macrophages. For the analysis of LPS-stimulated TNFα production, 2×10^5 cells were plated the night before in 24 well plates in macrophage medium. The next day, the medium was changed and AQX-016A or carrier was added to cells at the indicated concentrations for 30 min prior to the addition of 10 ng/mL LPS. Supernatants were collected for TNFα determination by ELISA (BD Biosciences, Mississauga, ON, Canada). For analysis of intracellular signaling, 2×10^6 cells were plated the night before in 6 cm tissue culture plates. The next day, the cells were cultured in macrophage medium without M-CSF for 1 hr at 37° C. and then pretreated with AQX-016A or carrier for 30 min prior to the addition of 10 ng/mL LPS for 15 min. Cells were washed with 4° C. […]
The target specificity and biological efficacy of AQX-016A were assessed by comparing AQX-016A's effects on PI3K-regulated processes in primary SHIP^+/+ vs SHIP^−/− macrophages and mast cells. […]

[7] = system: SHIP+/+ bone marrow derived macrophages; experiment: LPS stimulation of SHIP+/+ bone marrow derived macrophages; format: cell-based, mice; settings: SHIP+/+ cells, 15 μM, 10 ng/mL LPS 2 h
Experimental: as §2
LPS stimulation of macrophages. For the analysis of LPS-stimulated TNFα production, 2×10^5 cells were plated the night before in 24 well plates in macrophage medium. The next day, the medium was changed and AQX-016A or carrier was added to cells at the indicated concentrations for 30 min prior to the addition of 10 ng/mL LPS. Supernatants were collected for TNFα determination by ELISA (BD Biosciences, Mississauga, ON, Canada). For analysis of intracellular signaling, 2×10^6 cells were plated the night before in 6 cm tissue culture plates. The next day, the cells were cultured in macrophage medium without M-CSF for 1 hr at 37° C. and then pretreated with AQX-016A or carrier for 30 min prior to the addition of 10 ng/mL LPS for 15 min. Cells were washed with 4° C. PBS and resuspended in lysis buffer (50 mM Hepes, 2 mM EDTA, 1 mM NaVO4, 100 mM NaF, 50 mM NaPPi and 1% NP40) supplemented with Complete Protease Inhibitor Cocktail (Roche, Montreal, Canada). Lysates were rocked at 4° C. for 30 min and clarified by centrifuging 20 min at 12000×g. Lysates were then made 1× in Laemmli's buffer, boiled 2 min and loaded onto 7.5% SDS polyacrylamide […]. Immunoblot analysis for phospho PKB (Cell Signalling, Mississauga, Ont), SHIP and actin (Santa Cruz, Santa Cruz, Calif.) were carried out as described previously.
The target specificity and biological efficacy of AQX-016A were assessed by comparing AQX-016A's effects on PI3K-regulated processes in primary SHIP^+/+ vs SHIP^−/− macrophages and mast cells. […] LPS stimulation of macrophages is associated with a PIP3-dependent release of pro-inflammatory mediators such as TNFα. […]

| Structure (SMILES) | peripheral blood cell counts or bone marrow progenitor numbers [1] | Assay Number 2: Macrophage TNF-α production (J774.1a macrophage cells [2]) | Assay Number 7: In vitro Multiple Myeloma (MM) assay (MM cell lines) | Assay Number 3: Macrophage NO (J774.1a macrophage cells [3]) | Assay Number 5: Mouse acute cutaneous anaphylaxis model [4] | Assay Number 8: In vivo Multiple Myeloma (MM) assay [5] | PKB phosphorylation (LNCaP cells) | suppression of TNFα production [6] | suppression of TNFα production [7] |
| --- | --- | --- | --- | --- | --- | --- | --- | --- | --- |
| Cc1cc(O)c(O)c2c1[C@]1(C)CCC3C(C)(C)CCC[C@]3(C)[C@H]1C2 (stereo partly drawn) [AQX-016A] | do not significantly affect | + | + | + | + | + | no effect |  |  |
| O=c1cc(N2CCOCC2)oc2c(-c3ccccc3)cccc12 [LY294002, reference compound] |  |  |  |  |  |  |  | up to −40% | up to −40% |
